For this assay, the system named is Hedgehog signaling pathway. Nature of the assay: Gli-Luc luciferase reporter gene assay in C3H10T1/2/Gli-Luc cells under Shh-N stimulation. It is filed as cell-based. Particulars: Mus musculus, C3H 10T1/2, 24 h, luciferase RLU, read-out: biological activity: IC50 of the inhibitory activities of compounds on the hedgehog pathway. In outline: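 IC50 derived by curve fitting of luciferase RLU against log compound concentration. Stable C3H10T1/2/Gli-Luc cells, seeded overnight, were co-treated 24 h with serially diluted compound (7 points, duplicate wells) and 30 nM Shh-N-containing HEK293 conditioned medium before lysis and luminescence readout.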
(In general: Reporter assays use an easily measured gene product as a stand-in for the process of interest.)

Consider 41 molecules from US9938292B2 (GUANGDONG ZHONGSHENG PHARMACEUTICAL CO., LTD, priority 2014, dated 2018).

Regarding `COc1c(-c2ccc(N3C[C@@H](C)N(C(=O)C(C)N)[C@@H](C)C3)nc2)cnc2c(-c3ccc(C#N)cc3)cccc12` (some centres unmarked) [Embodiment 199], the half-maximal inhibitory concentration (IC50) is 100 to 500 nM.

Consider `COc1c(-c2ccc(N3C[C@@H](C)N(C(=O)c4cccnc4)[C@@H](C)C3)cc2)cnc2c(-c3ccc(C#N)cc3)cccc12` [Embodiment 200], for which the 50% inhibitory concentration (IC50) was at most 50 nM.

Take `COc1c(-c2ccc(N3C[C@@H](C)N(C(=O)c4ccncc4)[C@@H](C)C3)cc2)cnc2c(-c3ccc(C#N)cc3)cccc12` [Embodiment 201]: the IC50 is at most 50 nM.

Take `CCC(=O)N1[C@H](C)CN(c2ccc(-c3cnc4c(-c5ccc(C#N)cc5C)cccc4c3OC)cn2)C[C@@H]1C` [Embodiment 202]: the IC50 is at most 50 nM.

With `COc1c(-c2ccc(N3C[C@@H](C)N(C(=O)c4cncc(C)c4)[C@@H](C)C3)cc2)cnc2c(-c3ccc(C#N)cc3)cccc12` [Embodiment 203], the IC50 is at most 50 nM.

Turning to `CCC(=O)N1[C@H](C)CN(c2ccc(-c3cnc4c(-c5ccc(C#N)cc5)cccc4c3OC)cn2)C[C@@H]1C` [Embodiment 204], the IC50 is at most 50 nM.

As to `CCC(=O)N1[C@@H]2CC[C@H]1CN(c1ccc(-c3cnc4c(-c5ccc(C#N)cc5)cccc4c3OC)cn1)C2` [Embodiment 205, 4-(4-methoxy-3-(6-(8-propionyl-3,8-diazabicyclo[3.2.1]octan-3-yl)pyridin-3-yl)quinolin-8-yl)benzonitrile], the 50% inhibitory concentration (IC50) fell in the range of 50 to 100 nM.

With `COc1c(-c2ccc(N3C[C@@H](C)N(c4nccs4)[C@@H](C)C3)nc2)cnc2c(-c3ccc(C#N)cc3)cccc12` [Embodiment 206, 4-(3-(6-((3S,5R)-3,5-dimethyl-4-(thiazol-2-yl)piperazin-1-yl)pyridin-3-yl)-4-methoxyquinolin-8-yl)benzonitrile], the IC50 is at most 50 nM.

For `COc1c(N2CCN(C(=O)Cc3ccncc3)CC2)cnc2c(-c3ccc(C#N)cc3)cccc12` [Embodiment 207, 4-(4-methoxy-3-(4-(2-(pyridin-4-yl)acetyl)piperazin-1-yl)quinolin-8-yl)benzonitrile], the IC50 lay within 100 to 500 nM.

`COc1c(N2CCNCC2)cnc2c(-c3ccc(C#N)cc3)cccc12` [Embodiment 208]: the half-maximal inhibitory concentration (IC50) fell in the range of 100 to 500 nM.

Consider `COc1c(N2CCN(C(=O)Nc3ccncc3)CC2)cnc2c(-c3ccc(C#N)cc3)cccc12` [Embodiment 209], for which the IC50 is at most 50 nM.

As for `COc1c(N2CCN(C(=O)NC3CCCCC3)CC2)cnc2c(-c3ccc(C#N)cc3)cccc12` [Embodiment 210], the IC50 was at most 50 nM.

Consider `COc1c(N2CCN(C(=O)Nc3cccc(C)c3)CC2)cnc2c(-c3ccc(C#N)cc3)cccc12` [Embodiment 211], for which the IC50 is at most 50 nM.

Regarding `COc1c(N2CCN(C(=O)NC3CCOCC3)CC2)cnc2c(-c3ccc(C#N)cc3)cccc12` [Embodiment 212], the IC50 was at most 50 nM.

Regarding `COc1c(N2CCN(C(=O)N(C)C3CCOCC3)CC2)cnc2c(-c3ccc(C#N)cc3)cccc12` [Embodiment 213], the IC50 was at most 50 nM.

On to `COc1c(N2CCN(C(=O)CC(C)(C)O)CC2)cnc2c(-c3ccc(C#N)cc3)cccc12` [Embodiment 214], for which the IC50 was at most 50 nM.

With `COc1c(N2CCN(C(C)=O)CC2)cnc2c(-c3ccc(C#N)cc3)cccc12` [Embodiment 215], the half-maximal inhibitory concentration (IC50) fell in the range of 100 to 500 nM.

Regarding `COc1c(N2CCN(C(=O)CC3CCOCC3)CC2)cnc2c(-c3ccc(C#N)cc3)cccc12` [Embodiment 216], the IC50 was 100 to 500 nM.

For the molecule `COc1c(N2CCN(c3cc(C)nc(C)c3)CC2)cnc2c(-c3ccc(C#N)cc3)cccc12` [Embodiment 217, 4-(3-(4-(2,6-dimethylpyridin-4-yl)piperazin-1-yl)-4-methoxyquinolin-8-yl)benzonitrile], the IC50 fell in the range of 100 to 500 nM.

Regarding `CC(C)(O)c1ccc(N2CCN(c3cnc4c(-c5ccc(C#N)cc5)cccc4c3C(F)(F)F)CC2)nc1` [Embodiment 218, 4-(3-(4-(5-(2-hydroxypropan-2-yl)pyridin-2-yl)piperazin-1-yl)-4-(trifluoromethyl)quinolin-8-yl)benzonitrile], the concentration for half-maximal inhibition (IC50) is at most 50 nM.

On to `CC1CN(c2cnc3c(-c4ccc(C#N)cc4)cccc3c2Br)CCN1c1ccc(C(C)(C)O)cn1` (centres unmarked) [Embodiment 219, 4-(4-bromo-3-(4-(5-(2-hydroxypropan-2-yl)pyridin-2-yl)-3-methylpiperazin-1-yl)quinolin-8-yl)benzonitrile], for which the IC50 is at most 50 nM.

`COc1c(N2CCN(c3ccc(C(C)(C)O)cn3)CC2)cnc2c(-c3ccc(C#N)cc3)cccc12` [Embodiment 220, 4-(3-(4-(5-(2-hydroxypropan-2-yl)pyridin-2-yl)piperazin-1-yl)-4-methoxyquinolin-8-yl)benzonitrile]: the IC50 was at most 50 nM.

Take `COc1c(N2CCN(c3cnc(C(C)(C)O)cn3)CC2)cnc2c(-c3ccc(C#N)cc3)cccc12` [Embodiment 221]: the IC50 was at most 50 nM.

As to `COc1c(N2CCN(c3ccc(C(C)(C)O)c(C(F)(F)F)n3)CC2)cnc2c(-c3ccc(C#N)cc3)cccc12` [Embodiment 222], the concentration for half-maximal inhibition (IC50) is at most 50 nM.

Take `COc1c(N2CCN(c3ncc(C(C)(C)O)cc3C(F)(F)F)CC2)cnc2c(-c3ccc(C#N)cc3)cccc12` [Embodiment 223]: the IC50 is 100 to 500 nM.

On to `CC(C)(O)c1ccc(N2CCN(c3cnc4c(-c5ccc(C#N)cc5)cccc4c3C3CC3)CC2)nc1` [Embodiment 224], for which the half-maximal inhibitory concentration (IC50) was at most 50 nM.

For the molecule `COc1c(N2CCN(c3cnc(C(C)(C)O)cn3)C(C)C2)cnc2c(-c3ccc(C#N)cc3)cccc12` (centres unmarked) [Embodiment 225], the IC50 is at most 50 nM.

For `COc1c(N2CCN(c3ccc(C(C)(C)O)cn3)C(C)C2)cnc2c(-c3ccc(C#N)cc3)cccc12` (centres unmarked) [Embodiment 226], the IC50 is at most 50 nM.

For `COc1c(N2CCC(N3C[C@@H](C)O[C@@H](C)C3)CC2)cnc2c(-c3ccc(C#N)cc3)cccc12` [Embodiment 227, 4-(3-(4-(2,6-dimethylmorpholino)piperidin-1-yl)-4-methoxyquinolin-8-yl) benzonitrile], the IC50 was at most 50 nM.

`COc1c(N2CC(N3C[C@@H](C)O[C@@H](C)C3)C2)cnc2c(-c3ccc(C#N)cc3)cccc12` [Embodiment 228, 4-(3-(3-(2,6-dimethylmorpholino-4-yl)azetidin-1-yl)-4-methoxyquinolin-8-yl) benzonitrile]: the IC50 was 100 to 500 nM.

For the molecule `COc1c(N2CCC(N3C[C@@H](C)O[C@@H](C)C3)C2)cnc2c(-c3ccc(C#N)cc3)cccc12` (some centres unmarked) [Embodiment 229, 4-(3-(3-(2,6-dimethylmorpholino)pyrrolidin-1-yl)-4-methoxyquinolin-8-yl) benzonitrile], the IC50 lay in the range of 100 to 500 nM.

Consider `COc1c(N2C3CCC2CC(N2C[C@@H](C)O[C@@H](C)C2)C3)cnc2c(-c3ccc(C#N)cc3)cccc12` (some centres unmarked) [Embodiment 230, 4-(3-(3-(2,6-dimethylmorpholino-4-yl)-8-azabicyclo[3.2.1]octan-8-yl)-4-methoxyquinolin-8-yl)benzonitrile], for which the IC50 is 100 to 500 nM.

For the molecule `COc1c(N2CCC(O)(c3cc(C)cc(C)n3)CC2)cnc2c(-c3ccc(C#N)cc3)cccc12` [Embodiment 231, 4-(3-(4′-hydroxy-4,6-dimethyl-3′,4′,5′,6′-tetrahydro-2′H-[2,4′]bipyridyl-1′-yl)-4-methoxyquinolin-8-yl) benzonitrile], the IC50 was at most 50 nM.

In the case of `COc1c(C2CCC(N3C[C@@H](C)O[C@@H](C)C3)CC2)cnc2c(-c3ccc(C#N)cc3)cccc12` (some centres unmarked) [Embodiment 232, 4-(3-(4-(2,6-dimethylmorpholino-4-yl)cyclohexyl)-4-methoxyquinolin-8-yl) benzonitrile], the IC50 lay in the range of 100 to 500 nM.

For the molecule `COc1c(N2CC[C@@H](N3C[C@@H](C)O[C@@H](C)C3)[C@@H](F)C2)cnc2c(-c3ccc(C#N)cc3)cccc12` [Embodiment 233, 4-(3-(4-(2,6-dimethylmorpholino-4-yl)-3-fluoropiperidin-1-yl)-4-methoxyquinolin-8-yl)benzonitrile], the IC50 was at most 50 nM.

For `COc1c(N2CCC(N3CC(C)OC(C)C3=O)CC2)cnc2c(-c3ccc(C#N)cc3)cccc12` (centres unmarked) [Embodiment 235, 4-(3-(4-(2,6-dimethyl-3-oxo-morpholino-4-yl)piperidin-1-yl)-4-methoxyquinolin-8-yl) benzonitrile], the IC50 is at most 50 nM.

For `CC(C)(O)c1ccc(N2CCN(c3cnc4c(-c5ccc(C#N)cc5)cccc4c3C3CC3)CC2=O)nc1` [Embodiment 236, 4-(4-cyclopropyl-3-(4-(5-(1-hydroxy-1-methyl-ethyl)pyridin-2-yl)-3-oxo-piperazin-1-yl)quinolin-8-yl)benzonitrile], the IC50 was at most 50 nM.

For `CC(C)(O)c1ccc(N2CCN(c3cnc4c(-c5ccc(C#N)cc5)cccc4c3C3CC3)CC2(C)O)nc1` (centres unmarked) [Embodiment 237, 4-(4-cyclopropyl-3-(3-hydroxy-4-(5-(1-hydroxy-1-methyl-ethyl)pyridin-2-yl)-3-methylpiperazin-1-yl)quinolin-8-yl)benzonitrile], the IC50 lay within 100 to 500 nM.

For `COc1c(N2CCC(O)(c3ccc(C(C)(C)O)cn3)CC2)cnc2c(-c3ccc(C#N)cc3)cccc12` [Embodiment 238, 4-(3-(4-hydroxy-4-(5-(2-hydroxypropan-2-yl)pyridin-2-yl)piperidin-1-yl)-4-methoxyquinolin-8-yl)benzonitrile], the IC50 was at most 50 nM.

Turning to `C[C@@H]1CN(c2ccc(-c3cnc4c(-c5ccc(C#N)cc5)cccc4c3C3CC3)c(C(=O)O)n2)C[C@H](C)O1` [Embodiment 239, 3-(8-(4-cyanophenyl)-4-cyclopropylquinolin-3-yl)-6-(2,6-dimethylmorpholino-4-yl)pyridin-2-carboxylic acid], the half-inhibitory concentration (IC50) was in the range of 100 to 500 nM.

Take `COc1c(C2(O)CCN(c3ccc(C(C)(C)O)cn3)CC2)cnc2c(-c3ccc(C#N)cc3)cccc12` [Embodiment 240, 4-(3-(4-hydroxy-5′-(1-hydroxy-1-methyl-ethyl)-3,4,5,6-tetrahydro-2H-[1,2′]bipyridyl-4-yl)4-methoxyquinolin-8-yl)benzonitrile]: the IC50 was 100 to 500 nM.

One may read the IC50 as the concentration at which inhibition is half-maximal.
